The values that follow come from patent US20250169495A1, “COMPOSITIONS AND METHODS FOR CONTROLLING DROSOPHILA FLIES” (Rutgers, The State University of New Jersey, priority 2023, published 2025).

SMILES strings stand for the structures.

The first assay deals with Drosophila suzukii adults. The assay can be described thus: Multiple choice bioassay #2: known and putative repellents. In kind it is in vivo. The conditions noted are these: 50 μL neat; six traps per arena; 24 h; n=6. Here is the method:
Within each arena, six gated traps were positioned randomly in a circle (40 cm diameter) at equal distance with each trap 20 cm apart along the circumference. Each gated trap contained ˜5 g of store-bought organic blueberry fruit (n=5), as described elsewhere herein. One of the six traps served as a control (with blueberry fruit only) and the remaining five traps had one of the repellents added to the blueberry fruit. Each volatile (50 μL, neat) was released from a 1 mL polyethylene vial with a piece of cotton placed inside each trap (control traps had vials with cotton but without the volatile). A vial with a cotton ball soaked with deionized water was placed in the middle of the arena. Roughly 150 D. suzukii adults (1:1 male: female ratio) were released inside each arena and the number and sex of flies inside treatment and control traps was recorded after 24 h. The experiment started at 1:00 p.m., was replicated 6 times, and was done in a laboratory under 22±2° C., 55±5% RH, 16:8 (L:D) h. Data from multiple choice assays on the percent of male and female D. suzukii adults responding to each volatile were compared using ANOVA (Minitab version 17; Minitab Inc., State College, PA, USA). The ANOVA model included treatment, sex, and their interaction as fixed factors and block (replicate) as a random factor. A multi-comparison Tukey test (Minitab) was used to determine differences among treatments. Percent data were arcsine square-root transformed prior to ANOVA. Pairwise choice assays were analyzed using G-tests with William's correction. Non-responders were excluded from the statistical analyses.
As to `CC1CCCC2(C)CCCCC12O` (stereo not shown) [geosmin], the “strength of repellency among the five repellents (rank)” value is “the least repellent”.

Another assay deals with Drosophila suzukii adults. The assay can be described thus: Multiple choice bioassay #1: anthracnose-induced volatiles, gated traps with blueberries. In kind it is in vivo. As to conditions: 50 μL neat volatile added to blueberry fruit in gated trap; 15 traps per arena; 24 h; n=4. Here is the method: These bioassays were done in arenas that consisted of a dome cage (60 cm width×60 cm length x 60 cm height; BugDorm-2120 Insect tent; shop.bugdorm.com) (FIG. 1A). Within each arena, 15 gated traps were positioned randomly in a circle (40 cm diameter) at equal distance with each trap 8.4 cm apart along the circumference (FIG. 1A). Each gated trap consisted of 50 mL polystyrene tubes (Fisher Scientific, Nazareth, PA, USA) covered with aluminum foil and sealed with Parafilm®, with a 4 mm-diameter hole in the center of the Parafilm to provide an entrance to flies. All traps had equal quantities (ca. 5 g) of store-bought organic blueberry fruit (n=5); fruit were sterilized with bleach prior to the study (10% bleach for 2 min, rinsed three times in distilled water). One of the 15 traps served as a control (with blueberry fruit only) and the remaining 14 traps had one of the anthracnose volatile compounds added to the blueberry fruit. The 14 compounds tested were: 3-hydroxy-2-butanone, styrene, (E)-2-hexen-1-ol, ethyl 3-hydroxy-3-methylbutanoate, 2-methyl-1-butanol, ethyl propanoate, 2-methyl-1-propanol, diethyl carbonate, 2-methylpropanal, 3-methyl-1-butanol, ethyl 2-methylpropanoate, ethyl butanoate, ethyl (E)-but-2-enoate, and 3-methyl-3 buten-1-ol (see Results). Each volatile (50 μL, neat) was released from a 1 mL polyethylene vial (Globe Scientific Inc., Paramus, NJ, USA) with a piece of cotton placed inside each trap (control traps had vials with cotton but without the volatile). A vial with a cotton ball soaked with deionized water was placed in the middle of the arena to provide flies with water during the experiment. Roughly 300 D. suzukii adults (1:1 male: female ratio) were released inside each arena and the number and sex of flies inside treatment and control traps was recorded after 24 h. The experiment started at 1:00 p.m., was replicated 4 times, and was done in a laboratory under 22+2° C., 55+5% RH, 16:8 (L:D) h.
Data from multiple choice assays on the percent of male and female D. suzukii adults responding to each volatile were compared using ANOVA (Minitab version 17; Minitab Inc., State College, PA, USA). The ANOVA model included treatment, sex, and their interaction as fixed factors and block (replicate) as a random factor. A multi-comparison Tukey test (Minitab) was used to determine differences among treatments. Percent data were arcsine square-root transformed prior to ANOVA. Pairwise choice assays were analyzed using G-tests with William's correction. Non-responders were excluded from the statistical analyses.
For the compound `CCC(C)CO` (stereo not shown) [2-methyl-1-butanol], the “number of flies captured relative to the control” value was “captured a similar number of flies as the control”.
On to `CCC/C=C/CO` [(E)-2-hexen-1-ol], for which the “number of flies captured relative to the control” value was “captured a similar number of flies as the control”.
Turning to `C=C(C)CCO` [3-methyl-3-buten-1-ol], the “number of flies captured relative to the control” value is “reduced the number of flies captured relative to the control”.
On the same count and under the same terms, the value for `CCOC(=O)CC` [ethyl propanoate] was “reduced the number of flies captured relative to the control”.
As to `CC(C)C=O` [2-methylpropanal], the “number of flies captured relative to the control” value was “reduced the number of flies captured relative to the control”.
For `CCOC(=O)CC(C)(C)O` [ethyl 3-hydroxy-3-methylbutanoate, Ethyl 3-hydroxy-3-methylbutanoate], the “number of flies captured relative to the control” value was “captured a similar number of flies as the control”.
Same read-out and setting: next, `CC(=O)C(C)O` (stereo not shown) [3-hyrdroxy-2-butanone, 3-Hydroxy-2-butanone]: “trapped a higher number of flies than the control”; `CC(C)CO` [2-methyl-1-propanol]: “reduced the number of flies captured relative to the control”.
On to `CCOC(=O)C(C)C` [ethyl 2-methylpropanoate], for which the “number of flies captured relative to the control” value is recorded as “reduced the number of flies captured relative to the control”.
Still for that read-out and setting: next, `C=Cc1ccccc1` [styrene]: “trapped a higher number of flies than the control”; `CCOC(=O)OCC` [diethyl carbonate]: “reduced the number of flies captured relative to the control”; `CC(C)CCO` [3-methyl-1-butanol]: “reduced the number of flies captured relative to the control”.
